Several values for one entry are separate records, joined by “and”; a condition that tells them apart may be missing. Equal entries are not always repeated.
Experiments:
Test in all cases: KINOMEscan competition binding
Settings in all cases: compound 1.0 µM
CDC2L2 (human) = CDC2L2 (human) (UniProt Q9UQ88)
PIK3CD (human) = PIK3CD (human) (UniProt O00329)
TTK (human) = TTK (human) (UniProt P33981)
PKN3 (M.tuberculosis) = PKN3 (M.tuberculosis) (UniProt Q6P5Z2)
PHKG1 (human) = PHKG1 (human) (UniProt Q16816)
CDK17 (human) = CDK17 (human) (UniProt Q00537)
MARK3 (human) = MARK3 (human) (UniProt P27448)
RPS6KA5 KD1 (human) = RPS6KA5 KD1 (human) (UniProt O75582)
AKT2 (human) = AKT2 (human) (UniProt P31751)
[1] = system: PIK3CA (human), P42336 [C420R]
EPHA3 (human) = EPHA3 (human) (UniProt P29320)
CSNK1D (human) = CSNK1D (human) (UniProt P48730)
EPHB6 (human) = EPHB6 (human) (UniProt O15197)
MAP3K13 (human) = MAP3K13 (human) (UniProt O43283)
MAP2K6 (human) = MAP2K6 (human) (UniProt P52564)
MST1R (human) = MST1R (human) (UniProt Q04912)
DYRK2 (human) = DYRK2 (human) (UniProt Q92630)
MELK (human) = MELK (human) (UniProt Q14680)
MAP2K7 (human) = MAP2K7 (human) (UniProt O14733)
[2] = system: KIT (human), P10721 [V559D/V654A]
ANKK1 (human) = ANKK1 (human) (UniProt Q8NFD2)
MAPK12 (human) = MAPK12 (human) (UniProt P53778)
MARK1 (human) = MARK1 (human) (UniProt Q9P0L2)
ROCK2 (human) = ROCK2 (human) (UniProt O75116)
FLT3 (human) = FLT3 (human) (UniProt P36888)
PIK3CG (human) = PIK3CG (human) (UniProt P48736)
STK24 (human) = STK24 (human) (UniProt Q9Y6E0)
HIPK2 (human) = HIPK2 (human) (UniProt Q9H2X6)
MAP3K12 (human) = MAP3K12 (human) (UniProt Q12852)
[3] = system: EGFR (human), P00533 [L858R]
PAK3 (human) = PAK3 (human) (UniProt O75914)
CLK4 (human) = CLK4 (human) (UniProt Q9HAZ1)
NEK4 (human) = NEK4 (human) (UniProt P51957)
ABL2 (human) = ABL2 (human) (UniProt P42684)
IRAK3 (human) = IRAK3 (human) (UniProt Q9Y616)
DYRK1B (human) = DYRK1B (human) (UniProt Q9Y463)
AKT1 (human) = AKT1 (human) (UniProt P31749)
TNK1 (human) = TNK1 (human) (UniProt Q13470)
CIT (human) = CIT (human) (UniProt O14578)

Sequence of FLT3 (human) (P36888 whole entry, looked up): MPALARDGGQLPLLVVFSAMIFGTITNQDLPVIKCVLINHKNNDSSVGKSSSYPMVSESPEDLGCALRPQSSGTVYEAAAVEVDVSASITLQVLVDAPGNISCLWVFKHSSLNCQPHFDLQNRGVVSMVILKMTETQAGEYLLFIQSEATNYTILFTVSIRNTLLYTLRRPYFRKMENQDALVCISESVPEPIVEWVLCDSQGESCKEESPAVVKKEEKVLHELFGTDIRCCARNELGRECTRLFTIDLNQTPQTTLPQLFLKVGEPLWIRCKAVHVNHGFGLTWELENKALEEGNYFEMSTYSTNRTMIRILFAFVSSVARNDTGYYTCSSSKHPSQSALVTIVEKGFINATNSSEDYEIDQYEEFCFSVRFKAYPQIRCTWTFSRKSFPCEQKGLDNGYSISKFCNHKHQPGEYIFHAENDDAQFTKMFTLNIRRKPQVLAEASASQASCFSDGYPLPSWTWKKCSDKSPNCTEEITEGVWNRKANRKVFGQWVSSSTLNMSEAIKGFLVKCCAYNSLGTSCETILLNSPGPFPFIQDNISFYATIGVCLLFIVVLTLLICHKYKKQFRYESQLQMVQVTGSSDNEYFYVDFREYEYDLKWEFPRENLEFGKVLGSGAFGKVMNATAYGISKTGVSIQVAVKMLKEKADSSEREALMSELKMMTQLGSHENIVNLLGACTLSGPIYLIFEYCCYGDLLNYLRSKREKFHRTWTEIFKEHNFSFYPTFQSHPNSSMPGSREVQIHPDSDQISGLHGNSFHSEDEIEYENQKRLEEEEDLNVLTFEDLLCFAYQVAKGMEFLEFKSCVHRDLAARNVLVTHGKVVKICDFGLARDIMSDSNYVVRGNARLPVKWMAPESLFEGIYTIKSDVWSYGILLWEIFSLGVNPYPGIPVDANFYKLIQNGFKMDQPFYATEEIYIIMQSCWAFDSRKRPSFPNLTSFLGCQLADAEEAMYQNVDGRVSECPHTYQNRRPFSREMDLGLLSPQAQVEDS
Sequence of RPS6KA5 KD1 (human) (O75582 whole entry, looked up): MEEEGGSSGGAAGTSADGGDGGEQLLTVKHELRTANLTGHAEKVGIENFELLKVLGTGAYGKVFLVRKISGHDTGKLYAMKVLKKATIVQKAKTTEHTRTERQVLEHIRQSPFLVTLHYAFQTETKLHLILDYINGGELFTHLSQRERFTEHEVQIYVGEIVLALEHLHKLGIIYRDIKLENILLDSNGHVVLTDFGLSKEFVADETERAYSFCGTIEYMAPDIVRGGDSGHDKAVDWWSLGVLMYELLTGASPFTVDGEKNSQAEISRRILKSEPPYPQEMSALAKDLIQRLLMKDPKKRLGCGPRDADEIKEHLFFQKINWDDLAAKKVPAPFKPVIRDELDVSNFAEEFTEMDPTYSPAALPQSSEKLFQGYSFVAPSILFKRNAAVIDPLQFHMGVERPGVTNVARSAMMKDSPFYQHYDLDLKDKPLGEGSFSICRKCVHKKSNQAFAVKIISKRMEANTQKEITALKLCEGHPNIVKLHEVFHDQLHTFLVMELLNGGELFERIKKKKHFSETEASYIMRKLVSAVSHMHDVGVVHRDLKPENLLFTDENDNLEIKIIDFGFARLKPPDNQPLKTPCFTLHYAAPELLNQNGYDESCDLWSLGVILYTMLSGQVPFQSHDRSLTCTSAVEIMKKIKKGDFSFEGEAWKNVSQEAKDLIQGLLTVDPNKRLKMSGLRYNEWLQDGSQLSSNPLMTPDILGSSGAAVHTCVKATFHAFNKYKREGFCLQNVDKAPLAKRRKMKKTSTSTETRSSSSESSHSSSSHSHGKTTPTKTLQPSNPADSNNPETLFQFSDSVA
Sequence of CLK4 (human) (Q9HAZ1 whole entry, looked up): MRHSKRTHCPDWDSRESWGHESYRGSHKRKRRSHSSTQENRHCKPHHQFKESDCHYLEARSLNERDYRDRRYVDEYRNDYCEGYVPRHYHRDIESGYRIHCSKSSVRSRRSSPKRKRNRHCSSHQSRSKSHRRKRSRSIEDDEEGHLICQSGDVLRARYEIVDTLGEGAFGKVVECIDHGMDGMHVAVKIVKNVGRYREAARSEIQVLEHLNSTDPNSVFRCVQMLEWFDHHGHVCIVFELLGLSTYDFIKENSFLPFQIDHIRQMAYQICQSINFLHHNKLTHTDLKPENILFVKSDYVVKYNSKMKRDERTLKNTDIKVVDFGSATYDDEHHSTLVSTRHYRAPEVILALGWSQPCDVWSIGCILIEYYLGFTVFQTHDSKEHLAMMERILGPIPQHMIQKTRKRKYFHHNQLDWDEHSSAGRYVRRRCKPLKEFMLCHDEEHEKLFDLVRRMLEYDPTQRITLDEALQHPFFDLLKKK
Sequence of KIT (human), P10721 [V559D/V654A] (P10721 whole entry V559D/V654A, looked up): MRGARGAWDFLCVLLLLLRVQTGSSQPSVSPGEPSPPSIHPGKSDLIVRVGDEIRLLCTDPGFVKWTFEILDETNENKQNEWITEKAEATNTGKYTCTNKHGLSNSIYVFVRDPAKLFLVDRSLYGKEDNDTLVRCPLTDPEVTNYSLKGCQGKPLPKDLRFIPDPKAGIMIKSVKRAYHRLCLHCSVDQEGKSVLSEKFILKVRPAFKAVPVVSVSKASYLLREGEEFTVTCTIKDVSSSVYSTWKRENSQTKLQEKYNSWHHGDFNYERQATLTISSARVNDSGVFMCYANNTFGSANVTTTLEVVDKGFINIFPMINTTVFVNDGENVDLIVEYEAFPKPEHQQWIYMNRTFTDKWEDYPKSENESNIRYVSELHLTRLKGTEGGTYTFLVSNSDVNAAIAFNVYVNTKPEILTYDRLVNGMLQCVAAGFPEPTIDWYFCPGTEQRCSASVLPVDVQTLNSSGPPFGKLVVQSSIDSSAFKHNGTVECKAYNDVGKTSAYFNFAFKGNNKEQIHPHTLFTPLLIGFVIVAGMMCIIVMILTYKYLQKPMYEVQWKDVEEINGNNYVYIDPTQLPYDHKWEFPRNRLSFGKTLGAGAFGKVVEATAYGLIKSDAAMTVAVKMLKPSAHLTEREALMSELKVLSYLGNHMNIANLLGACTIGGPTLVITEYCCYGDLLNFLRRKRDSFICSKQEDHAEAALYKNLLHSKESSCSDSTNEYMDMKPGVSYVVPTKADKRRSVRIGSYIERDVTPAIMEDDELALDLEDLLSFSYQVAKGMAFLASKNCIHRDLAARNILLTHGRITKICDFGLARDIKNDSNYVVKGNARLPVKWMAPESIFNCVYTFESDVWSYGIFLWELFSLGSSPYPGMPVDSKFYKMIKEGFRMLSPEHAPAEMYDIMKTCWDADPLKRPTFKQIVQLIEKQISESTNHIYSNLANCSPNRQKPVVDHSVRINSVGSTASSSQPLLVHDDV
Sequence of DYRK1B (human) (Q9Y463 whole entry, looked up): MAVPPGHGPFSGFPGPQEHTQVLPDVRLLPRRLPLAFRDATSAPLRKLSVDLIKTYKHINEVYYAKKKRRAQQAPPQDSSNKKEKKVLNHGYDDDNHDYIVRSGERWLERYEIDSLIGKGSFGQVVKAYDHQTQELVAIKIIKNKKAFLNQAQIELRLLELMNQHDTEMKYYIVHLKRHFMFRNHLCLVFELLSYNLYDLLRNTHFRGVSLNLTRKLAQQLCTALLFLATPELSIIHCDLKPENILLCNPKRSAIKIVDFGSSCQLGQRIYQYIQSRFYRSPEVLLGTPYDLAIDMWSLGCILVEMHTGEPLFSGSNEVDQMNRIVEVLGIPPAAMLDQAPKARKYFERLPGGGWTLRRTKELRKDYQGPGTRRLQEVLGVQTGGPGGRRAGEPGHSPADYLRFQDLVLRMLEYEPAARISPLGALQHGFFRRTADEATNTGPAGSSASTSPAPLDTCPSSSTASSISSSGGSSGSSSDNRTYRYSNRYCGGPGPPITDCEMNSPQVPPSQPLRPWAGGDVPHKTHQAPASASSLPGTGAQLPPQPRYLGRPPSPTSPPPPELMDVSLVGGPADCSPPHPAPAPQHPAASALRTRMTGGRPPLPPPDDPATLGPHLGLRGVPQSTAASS
Sequence of MARK1 (human) (Q9P0L2 whole entry, looked up): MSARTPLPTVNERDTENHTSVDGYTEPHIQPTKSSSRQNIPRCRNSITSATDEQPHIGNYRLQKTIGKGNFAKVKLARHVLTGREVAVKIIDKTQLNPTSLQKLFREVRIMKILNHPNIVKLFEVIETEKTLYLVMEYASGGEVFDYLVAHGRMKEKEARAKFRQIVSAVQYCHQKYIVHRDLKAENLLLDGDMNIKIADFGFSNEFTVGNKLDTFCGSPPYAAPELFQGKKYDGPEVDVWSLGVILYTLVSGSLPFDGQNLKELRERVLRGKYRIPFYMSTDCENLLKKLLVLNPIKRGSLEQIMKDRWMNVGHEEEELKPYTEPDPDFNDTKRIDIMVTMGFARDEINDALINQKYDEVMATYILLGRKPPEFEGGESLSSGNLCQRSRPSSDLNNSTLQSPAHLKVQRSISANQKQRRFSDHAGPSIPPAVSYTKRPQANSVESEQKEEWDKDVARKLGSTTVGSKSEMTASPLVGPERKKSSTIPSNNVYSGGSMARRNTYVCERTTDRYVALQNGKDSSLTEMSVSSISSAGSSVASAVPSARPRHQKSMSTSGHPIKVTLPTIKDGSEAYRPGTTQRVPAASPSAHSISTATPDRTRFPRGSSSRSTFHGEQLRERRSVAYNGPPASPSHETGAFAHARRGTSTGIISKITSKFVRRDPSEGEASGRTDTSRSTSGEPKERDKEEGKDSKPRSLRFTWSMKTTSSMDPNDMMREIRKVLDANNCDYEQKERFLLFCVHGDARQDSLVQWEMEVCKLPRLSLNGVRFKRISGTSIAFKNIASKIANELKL
Sequence of MAP2K6 (human) (P52564 whole entry, looked up): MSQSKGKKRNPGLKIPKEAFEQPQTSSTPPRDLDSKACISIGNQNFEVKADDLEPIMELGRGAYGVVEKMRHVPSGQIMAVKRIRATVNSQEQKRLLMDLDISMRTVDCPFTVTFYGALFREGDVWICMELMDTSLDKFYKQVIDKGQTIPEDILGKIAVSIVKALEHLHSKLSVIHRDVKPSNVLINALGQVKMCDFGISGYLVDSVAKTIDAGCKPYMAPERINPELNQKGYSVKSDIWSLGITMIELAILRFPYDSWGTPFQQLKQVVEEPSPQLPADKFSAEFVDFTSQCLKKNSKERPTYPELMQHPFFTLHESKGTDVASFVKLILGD

CNc1nc(Nc2ccc(C(=O)N3CCOCC3)cc2OC)ncc1Cl
residual activity (CDC2L2 (human)): 100%
kinase still bound, per cent of control (PIK3CD (human)): 69%
kinase still bound, per cent of control (TTK (human)): 20%
kinase still bound, per cent of control (PKN3 (M.tuberculosis)): 85%
kinase still bound, per cent of control (PHKG1 (human)): 76%
residual activity (CDK17 (human)): 97%
kinase still bound, per cent of control (MARK3 (human)): 98%
kinase still bound, per cent of control (RPS6KA5 KD1 (human)): 100%
kinase still bound, per cent of control (AKT2 (human)): 100%
kinase still bound, per cent of control [1]: 85%
kinase still bound, per cent of control (EPHA3 (human)): 100%
residual activity (CSNK1D (human)): 100%
kinase still bound, per cent of control (EPHB6 (human)): 100%
kinase still bound, per cent of control (MAP3K13 (human)): 100%
kinase still bound, per cent of control (MAP2K6 (human)): 100%
kinase still bound, per cent of control (MST1R (human)): 100%
kinase still bound, per cent of control (DYRK2 (human)): 91%
kinase still bound, per cent of control (MELK (human)): 100%
kinase still bound, per cent of control (MAP2K7 (human)): 100%
kinase still bound, per cent of control [2]: 100%
kinase still bound, per cent of control (ANKK1 (human)): 100%
kinase still bound, per cent of control (MAPK12 (human)): 100%
kinase still bound, per cent of control (MARK1 (human)): 45%
kinase still bound, per cent of control (ROCK2 (human)): 100%
kinase still bound, per cent of control (FLT3 (human)): 49% and 65%
kinase still bound, per cent of control (PIK3CG (human)): 78%
kinase still bound, per cent of control (STK24 (human)): 79%
kinase still bound, per cent of control (HIPK2 (human)): 100%
residual activity (MAP3K12 (human)): 100%
kinase still bound, per cent of control [3]: 100%
kinase still bound, per cent of control (PAK3 (human)): 88%
kinase still bound, per cent of control (CLK4 (human)): 100%
kinase still bound, per cent of control (NEK4 (human)): 87%
kinase still bound, per cent of control (ABL2 (human)): 100%
kinase still bound, per cent of control (IRAK3 (human)): 88%
kinase still bound, per cent of control (DYRK1B (human)): 100%
kinase still bound, per cent of control (AKT1 (human)): 99%
kinase still bound, per cent of control (TNK1 (human)): 66%
kinase still bound, per cent of control (CIT (human)): 100%

Reference: the kinase profiling compilation of Christmann-Franck et al. (2016)
